Results published in ChEMBL document CHEMBL1133073, “Structure-activity relationships of carboxymethylpullulan-peptide-doxorubicin conjugates--systematic modification of peptide spacers” (Bioorg Med Chem Lett, 2000).

Assays:
Rattus norvegicus [1] = assay: In vivo heart distribution of free doxorubicin after 6 hr intravenous administration of 2.5 mg/kg of compound in rat bearing Walker 256 cells; format: ADME, organism-based; parameters: dose 2.5 mg/kg, route intravenous
Rattus norvegicus [2] = assay: In vivo liver distribution of free doxorubicin after 6 hr intravenous administration of 2.5 mg/kg of compound in rat bearing Walker 256 cells; format: ADME, organism-based; parameters: dose 2.5 mg/kg, route intravenous
Rattus norvegicus [3] = assay: In vivo liver distribution of total doxorubicin after 6 h intravenous administration of 2.5 mg/kg of compound in rat bearing Walker 256 cells; format: ADME, organism-based; parameters: dose 2.5 mg/kg, route intravenous
Rattus norvegicus [4] = assay: In vivo plasma distribution of free doxorubicin after 6 h intravenous administration of 2.5 mg/kg of compound in rat bearing Walker 256 cells; format: ADME, organism-based; parameters: dose 2.5 mg/kg, route intravenous
Rattus norvegicus [5] = assay: In vivo plasma distribution of total doxorubicin after 6 hr intravenous administration of 2.5 mg/kg of compound in rat bearing Walker 256 cells; format: ADME, organism-based; parameters: dose 2.5 mg/kg, route intravenous
Rattus norvegicus [6] = assay: In vivo spleen distribution of total doxorubicin after 6 hr intravenous administration of 2.5 mg/kg of compound in rat bearing Walker 256 cells; format: ADME, organism-based; parameters: dose 2.5 mg/kg, route intravenous
Rattus norvegicus [7] = assay: In vivo tumor distribution of free doxorubicin after 6 h intravenous administration of 2.5 mg/kg of compound in rat bearing Walker 256 cells; format: ADME, organism-based; parameters: dose 2.5 mg/kg, route intravenous
Rattus norvegicus [8] = species on record: Rattus norvegicus; assay: Effective dose was measured in rats; format: functional
Rattus norvegicus [9] = assay: In vivo tumor distribution of total doxorubicin after 6 hr intravenous administration of 2.5 mg/kg of compound in rat bearing Walker 256 cells; format: ADME, organism-based; parameters: dose 2.5 mg/kg, route intravenous

Dose/g tissue (Rattus norvegicus [1]): 1.13% | Dose/g tissue (Rattus norvegicus [2]): 0.56% | Dose/g tissue (Rattus norvegicus [3]): 0.54% | Dose/g tissue (Rattus norvegicus [4]): 0% | Dose/g tissue (Rattus norvegicus [5]): 0% | Dose/g tissue (Rattus norvegicus [6]): 2.21% | Dose/g tissue (Rattus norvegicus [7]): 0.24% | Dose/g tissue (Rattus norvegicus [9]): 0.35%
SMILES: COc1cccc2c1C(=O)c1c(O)c3c(c(O)c1C2=O)C[C@@](O)(C(=O)CO)C[C@@H]3O[C@H]1C[C@H](N)[C@H](O)[C@H](C)O1 [DOXORUBICIN]
ED50 (Rattus norvegicus [8]): 1.17 mg/kg
